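Values below derive from 48-hour exposures of cells grown in 96-well plates, with endpoints linearly interpolated between the two concentrations bracketing the appropriate inhibition level. At the GI50, growth is halved. TGI marks complete inhibition of growth.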
Assays:
Experiment in all cases: NCI anticancer screen, dose series, 48 h
SK-MEL-2 melanoma = test system: SK-MEL-2 melanoma
HOP-62 NSCLC = test system: HOP-62 NSCLC
SK-MEL-28 melanoma = test system: SK-MEL-28 melanoma
SNB-19 CNS = test system: SNB-19 CNS
OVCAR-4 ovarian = test system: OVCAR-4 ovarian
MALME-3M melanoma = test system: MALME-3M melanoma
HL-60(TB) leukemia = test system: HL-60(TB) leukemia
MDA-MB-231 breast = test system: MDA-MB-231 breast
UACC-62 melanoma = test system: UACC-62 melanoma
A498 renal = test system: A498 renal
NCI-H226 lung = test system: NCI-H226 lung
SW-620 colon = test system: SW-620 colon
SN12C renal = test system: SN12C renal
DU-145 prostate = test system: DU-145 prostate
MOLT-4 leukemia = test system: MOLT-4 leukemia
OVCAR-5 ovarian = test system: OVCAR-5 ovarian
HCC-2998 colon = test system: HCC-2998 colon
T-47D breast = test system: T-47D breast
IGROV1 ovarian = test system: IGROV1 ovarian
SF-295 CNS = test system: SF-295 CNS
U251 CNS = test system: U251 CNS
SF-268 CNS = test system: SF-268 CNS
KM12 colon = test system: KM12 colon
HOP-92 NSCLC = test system: HOP-92 NSCLC
UACC-257 melanoma = test system: UACC-257 melanoma
SF-539 CNS = test system: SF-539 CNS
786-0 renal = test system: 786-0 renal
PC-3 prostate = test system: PC-3 prostate
NCI-H460 lung = test system: NCI-H460 lung
CCRF-CEM leukemia = test system: CCRF-CEM leukemia
NCI-H23 lung = test system: NCI-H23 lung
TK-10 renal = test system: TK-10 renal
HS 578T breast = test system: HS 578T breast
SNB-75 CNS = test system: SNB-75 CNS
CAKI-1 renal = test system: CAKI-1 renal
ACHN renal = test system: ACHN renal
K-562 leukemia = test system: K-562 leukemia
NCI/ADR-RES ovarian = test system: NCI/ADR-RES ovarian
BT-549 breast = test system: BT-549 breast
M14 melanoma = test system: M14 melanoma
SK-MEL-5 melanoma = test system: SK-MEL-5 melanoma
SK-OV-3 ovarian = test system: SK-OV-3 ovarian
MDA-MB-468 breast = test system: MDA-MB-468 breast
UO-31 renal = test system: UO-31 renal
NCI-H522 lung = test system: NCI-H522 lung
SR leukemia = test system: SR leukemia
LOX IMVI melanoma = test system: LOX IMVI melanoma
MDA-MB-435 = test system: MDA-MB-435
EKVX NSCLC = test system: EKVX NSCLC
COLO 205 colon = test system: COLO 205 colon
A549 NSCLC = test system: A549 NSCLC
RPMI-8226 leukemia = test system: RPMI-8226 leukemia
OVCAR-8 ovarian = test system: OVCAR-8 ovarian
HCT-15 colon = test system: HCT-15 colon
MCF7 breast = test system: MCF7 breast
RXF 393 renal = test system: RXF 393 renal
HT29 colon = test system: HT29 colon
HCT-116 colon = test system: HCT-116 colon
OVCAR-3 ovarian = test system: OVCAR-3 ovarian

## C=C(C)[C@@H]1CC[C@]2(C)[C@H](CC=C3[C@@H]4CC(C)(C)CC[C@]4(C(=O)N4CCOCC4)CC[C@]32C)[C@@]1(C)CCCN
SK-MEL-2 melanoma
  GI50: 1.43 µM
  TGI: 2.96 µM
HOP-62 NSCLC
  GI50: 1.39 µM
  TGI: 2.83 µM
SK-MEL-28 melanoma
  GI50: 1.24 µM
  TGI: 2.28 µM
SNB-19 CNS
  GI50: 2.12 µM
  TGI: 6.82 µM
OVCAR-4 ovarian
  GI50: 1.38 µM
  TGI: 2.69 µM
MALME-3M melanoma
  GI50: 1.31 µM
  TGI: 2.38 µM
HL-60(TB) leukemia
  GI50: 1 µM
  TGI: 3.32 µM
MDA-MB-231 breast
  GI50: 1.37 µM
  TGI: 2.43 µM
UACC-62 melanoma
  GI50: 1.56 µM
  TGI: 3.56 µM
A498 renal
  GI50: 1.41 µM
  TGI: 3.1 µM
NCI-H226 lung
  GI50: 2.78 µM
  TGI: 16.5 µM
SW-620 colon
  GI50: 1.19 µM
  TGI: 2.27 µM
SN12C renal
  GI50: 1.29 µM
  TGI: 2.44 µM
DU-145 prostate
  GI50: 1.5 µM
  TGI: 2.96 µM
MOLT-4 leukemia
  GI50: 1.73 µM
  TGI: 4.62 µM
OVCAR-5 ovarian
  GI50: 1.38 µM
  TGI: 2.69 µM
HCC-2998 colon
  GI50: 1.22 µM
  TGI: 2.25 µM
T-47D breast
  GI50: 1.86 µM
  TGI: 4.7 µM
IGROV1 ovarian
  GI50: 1.56 µM
  TGI: 2.99 µM
SF-295 CNS
  GI50: 1.3 µM
  TGI: 2.4 µM
U251 CNS
  GI50: 1.28 µM
  TGI: 2.39 µM
SF-268 CNS
  GI50: 1.98 µM
  TGI: 6.22 µM
KM12 colon
  GI50: 1.35 µM
  TGI: 2.6 µM
HOP-92 NSCLC
  GI50: 1.25 µM
  TGI: 2.71 µM
UACC-257 melanoma
  GI50: 1.29 µM
  TGI: 2.61 µM
SF-539 CNS
  GI50: 1.26 µM
  TGI: 2.28 µM
786-0 renal
  GI50: 1.18 µM
  TGI: 2.34 µM
PC-3 prostate
  GI50: 1.49 µM
  TGI: 3.87 µM
NCI-H460 lung
  GI50: 1.19 µM
  TGI: 2.25 µM
CCRF-CEM leukemia
  GI50: 1.33 µM
  TGI: 3.68 µM
NCI-H23 lung
  GI50: 1.31 µM
  TGI: 2.45 µM
TK-10 renal
  GI50: 1.64 µM
  TGI: 4.36 µM
HS 578T breast
  GI50: 1.4 µM
  TGI: 2.99 µM
SNB-75 CNS
  GI50: 2 µM
  TGI: 7.89 µM
CAKI-1 renal
  GI50: 1.23 µM
  TGI: 2.25 µM
ACHN renal
  GI50: 1.34 µM
  TGI: 2.4 µM
K-562 leukemia
  GI50: 1.96 µM
  TGI: 73.5 µM
NCI/ADR-RES ovarian
  GI50: 1.44 µM
  TGI: 2.77 µM
BT-549 breast
  GI50: 9.16 µM
  TGI: 24 µM
M14 melanoma
  GI50: 1.43 µM
  TGI: 3.25 µM
SK-MEL-5 melanoma
  GI50: 1.56 µM
  TGI: 3.47 µM
SK-OV-3 ovarian
  GI50: 7.35 µM
  TGI: 21.3 µM
MDA-MB-468 breast
  GI50: 1.2 µM
  TGI: 2.33 µM
UO-31 renal
  GI50: 1.35 µM
  TGI: 3.2 µM
NCI-H522 lung
  GI50: 1.34 µM
  TGI: 2.55 µM
SR leukemia
  GI50: 0.407 µM
  TGI: 3.09 µM
LOX IMVI melanoma
  GI50: 1.25 µM
  TGI: 2.26 µM
MDA-MB-435
  GI50: 1.22 µM
  TGI: 2.31 µM
EKVX NSCLC
  GI50: 1.37 µM
  TGI: 2.88 µM

## O=C(c1ccc(O)cc1)C1[C@H](c2ccccc2Br)[C@@H](c2ccccc2)NC12C(=O)Nc1ccccc12 (some centres undefined)
COLO 205 colon
  GI50: 9.19 µM
  TGI: 17.8 µM
SK-MEL-2 melanoma
  GI50: 8.33 µM
  TGI: 16.2 µM
HOP-62 NSCLC
  GI50: 9.37 µM
  TGI: 18.1 µM
SK-MEL-28 melanoma
  GI50: 9.1 µM
  TGI: 17.2 µM
SNB-19 CNS
  GI50: 9.03 µM
  TGI: 17.2 µM
OVCAR-4 ovarian
  GI50: 8.72 µM
  TGI: 19.1 µM
MALME-3M melanoma
  GI50: 8.58 µM
  TGI: 16.4 µM
HL-60(TB) leukemia
  GI50: 15.1 µM
  TGI: 44.7 µM
MDA-MB-231 breast
  GI50: 7.94 µM
  TGI: 15.8 µM
A549 NSCLC
  GI50: 8.07 µM
  TGI: 16.9 µM
UACC-62 melanoma
  GI50: 7.63 µM
  TGI: 15.1 µM
A498 renal
  GI50: 8.6 µM
  TGI: 16.8 µM
NCI-H226 lung
  GI50: 6.82 µM
  TGI: 15 µM
SW-620 colon
  GI50: 10.1 µM
  TGI: 19.6 µM
SN12C renal
  GI50: 8.7 µM
  TGI: 16.6 µM
DU-145 prostate
  GI50: 10 µM
  TGI: 19 µM
MOLT-4 leukemia
  GI50: 7.99 µM
  TGI: 25 µM
OVCAR-5 ovarian
  GI50: 9.47 µM
  TGI: 18.2 µM
HCC-2998 colon
  GI50: 8.48 µM
  TGI: 16.6 µM
T-47D breast
  GI50: 10.5 µM
  TGI: 38.9 µM
IGROV1 ovarian
  GI50: 7.29 µM
  TGI: 15.5 µM
SF-295 CNS
  GI50: 9.77 µM
  TGI: 21 µM
U251 CNS
  GI50: 9.11 µM
  TGI: 17.1 µM
SF-268 CNS
  GI50: 7.83 µM
  TGI: 18.8 µM
KM12 colon
  GI50: 9.8 µM
  TGI: 20.2 µM
HOP-92 NSCLC
  GI50: 7.83 µM
  TGI: 16.4 µM
RPMI-8226 leukemia
  GI50: 12.8 µM
  TGI: 42.6 µM
UACC-257 melanoma
  GI50: 8.73 µM
  TGI: 16.9 µM
OVCAR-8 ovarian
  GI50: 9.27 µM
  TGI: 17.7 µM
SF-539 CNS
  GI50: 9.08 µM
  TGI: 17.2 µM
HCT-15 colon
  GI50: 9.43 µM
  TGI: 20 µM
786-0 renal
  GI50: 9.47 µM
  TGI: 18.1 µM
MCF7 breast
  GI50: 10.4 µM
  TGI: 27.6 µM
PC-3 prostate
  GI50: 8.03 µM
  TGI: 21.3 µM
NCI-H460 lung
  GI50: 9.17 µM
  TGI: 17.8 µM
RXF 393 renal
  GI50: 5.14 µM
  TGI: 12.8 µM
CCRF-CEM leukemia
  GI50: 10 µM
  TGI: 22.9 µM
HT29 colon
  GI50: 10.2 µM
  TGI: 20.5 µM
NCI-H23 lung
  GI50: 9.23 µM
  TGI: 18.2 µM
TK-10 renal
  GI50: 9.29 µM
  TGI: 18.8 µM
HS 578T breast
  GI50: 9.49 µM
  TGI: 27.2 µM
SNB-75 CNS
  GI50: 7.87 µM
  TGI: 19.9 µM
CAKI-1 renal
  GI50: 7 µM
  TGI: 15.1 µM
ACHN renal
  GI50: 9.17 µM
  TGI: 17.8 µM
K-562 leukemia
  GI50: 12.9 µM
  TGI: 40.2 µM
HCT-116 colon
  GI50: 8.93 µM
  TGI: 18 µM
BT-549 breast
  GI50: 7.23 µM
  TGI: 15 µM
M14 melanoma
  GI50: 8.94 µM
  TGI: 17.7 µM
SK-MEL-5 melanoma
  GI50: 8.92 µM
  TGI: 16.9 µM
SK-OV-3 ovarian
  GI50: 11.9 µM
  TGI: 31.3 µM
OVCAR-3 ovarian
  GI50: 9.2 µM
  TGI: 18.3 µM
MDA-MB-468 breast
  GI50: 7.08 µM
  TGI: 16 µM
UO-31 renal
  GI50: 7.61 µM
  TGI: 15 µM
NCI-H522 lung
  GI50: 8.25 µM
  TGI: 17.5 µM
SR leukemia
  GI50: 9.59 µM
  TGI: 24 µM
LOX IMVI melanoma
  GI50: 8.3 µM
  TGI: 16.2 µM
MDA-MB-435
  GI50: 10.5 µM
  TGI: 20 µM
EKVX NSCLC
  GI50: 9.34 µM
  TGI: 23.2 µM

Source: PubChem BioAssay (NCI)
